Source: the NIST ThermoML archive (doi:10.1016/j.jct.2007.11.001)
Numbers after ± are expanded uncertainties.

Conditions: Crystal 2; Adiabatic calorimetry

Triple point temperature: 235.69 ± 0.2 K
SMILES: O=P([O-])([O-])[O-].[Cs+].[Mg+2] [caesium-magnesium monophosphate]
